From US12473293B2, “Pharmacologically active heterocyclic-substituted pyrazolo[1,5-a]pyrimidine derivatives” (Richter Gedeon Nyrt., priority 2020, dated 2025) come the findings set out here.

Where a name gives a salt, the structure may show the parent alone.

This assay deals with T1, GABAB receptor (Rattus norvegicus, UniProt O88871+Q9Z0U4).
T1 construct: from tissue; host or cells: rat brain cortex membranes
T1 sequence (O88871 41-940): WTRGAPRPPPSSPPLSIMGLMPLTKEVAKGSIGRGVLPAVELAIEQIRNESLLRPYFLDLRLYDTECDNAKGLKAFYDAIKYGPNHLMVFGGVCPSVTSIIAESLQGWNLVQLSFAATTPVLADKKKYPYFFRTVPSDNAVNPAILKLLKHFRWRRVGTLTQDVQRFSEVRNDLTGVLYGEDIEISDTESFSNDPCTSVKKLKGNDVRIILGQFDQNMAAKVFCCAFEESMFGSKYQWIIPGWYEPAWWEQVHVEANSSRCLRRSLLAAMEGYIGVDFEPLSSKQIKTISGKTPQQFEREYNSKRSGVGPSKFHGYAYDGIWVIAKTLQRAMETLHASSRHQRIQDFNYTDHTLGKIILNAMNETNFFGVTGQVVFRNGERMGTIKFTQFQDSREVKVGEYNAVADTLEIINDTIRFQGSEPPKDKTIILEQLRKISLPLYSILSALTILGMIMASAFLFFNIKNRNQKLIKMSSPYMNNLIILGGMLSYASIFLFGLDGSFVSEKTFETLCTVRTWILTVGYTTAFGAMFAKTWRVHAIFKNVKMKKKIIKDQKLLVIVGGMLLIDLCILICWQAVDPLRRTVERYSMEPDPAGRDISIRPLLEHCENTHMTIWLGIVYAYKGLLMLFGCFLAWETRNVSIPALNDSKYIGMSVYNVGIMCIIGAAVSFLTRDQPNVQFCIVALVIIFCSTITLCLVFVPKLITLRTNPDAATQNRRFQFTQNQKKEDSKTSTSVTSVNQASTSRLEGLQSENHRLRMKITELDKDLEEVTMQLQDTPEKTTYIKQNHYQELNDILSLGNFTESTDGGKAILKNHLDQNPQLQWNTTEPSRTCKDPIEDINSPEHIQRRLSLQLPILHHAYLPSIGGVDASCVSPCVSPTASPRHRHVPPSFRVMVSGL
T1 sequence (Q9Z0U4 17-960 limits assumed): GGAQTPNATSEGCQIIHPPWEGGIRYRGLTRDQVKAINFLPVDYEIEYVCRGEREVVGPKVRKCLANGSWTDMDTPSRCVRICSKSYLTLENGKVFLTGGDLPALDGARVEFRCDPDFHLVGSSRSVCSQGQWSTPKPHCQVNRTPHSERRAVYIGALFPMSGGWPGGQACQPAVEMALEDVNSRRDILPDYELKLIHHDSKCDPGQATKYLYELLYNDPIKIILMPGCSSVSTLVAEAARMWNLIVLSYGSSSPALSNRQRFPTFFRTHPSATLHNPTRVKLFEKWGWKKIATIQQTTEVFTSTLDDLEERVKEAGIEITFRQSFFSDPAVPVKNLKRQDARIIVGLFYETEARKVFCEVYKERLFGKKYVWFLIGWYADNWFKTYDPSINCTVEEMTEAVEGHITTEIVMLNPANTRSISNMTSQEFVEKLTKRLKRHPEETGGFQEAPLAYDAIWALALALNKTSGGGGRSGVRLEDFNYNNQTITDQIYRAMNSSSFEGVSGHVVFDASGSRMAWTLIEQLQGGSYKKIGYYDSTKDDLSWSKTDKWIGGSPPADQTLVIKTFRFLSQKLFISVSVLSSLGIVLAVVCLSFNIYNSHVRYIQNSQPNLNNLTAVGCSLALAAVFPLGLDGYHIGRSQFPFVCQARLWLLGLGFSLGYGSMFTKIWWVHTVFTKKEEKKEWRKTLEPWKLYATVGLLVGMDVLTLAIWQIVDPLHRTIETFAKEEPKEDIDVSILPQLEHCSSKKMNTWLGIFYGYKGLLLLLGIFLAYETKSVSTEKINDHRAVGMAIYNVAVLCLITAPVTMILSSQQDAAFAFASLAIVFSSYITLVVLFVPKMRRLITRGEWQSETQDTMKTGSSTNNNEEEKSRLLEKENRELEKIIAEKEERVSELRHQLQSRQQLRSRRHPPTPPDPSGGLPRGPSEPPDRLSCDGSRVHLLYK
The assay can be described thus: In vitro [35S]GTPγS binding assay in rat cortical membranes. The class given is biochemical. Conditions: PAM EC50, [35S]GTPγS binding, read-out: In vitro PAM potency. The procedure: In Vitro [^35S]GTPγS Binding Assay in Rat Cortical Membranes
Cortices of freshly harvested rat brains were dissected on an ice-cold surface and homogenized by a glass Dounce homogeniser immediately in ice-cold buffer containing 50 mM Tris, 5 mM MgCl2 and 1 mM EDTA (pH=7.6). Tissue homogenates were centrifuged at 40000 g for 15 min at 4° C. Membrane pellets were resuspended in the same buffer and membranes were incubated for 10 min at 30° C. in a shaking water bath to eliminate endogenous GABA. Homogenates were centrifuged again under the same conditions. The final pellets were resuspended in ice-cold buffer (pH=7.6) containing 50 mM Tris, 100 mM NaCl, 7 mM MgCl2, 1 mM EDTA and 1 mM dithiotreithol (DTT) to yield a concentration of 20 mg tissue weight/ml and frozen at −70° C. until use. The assay was done in a buffer containing 50 mM Tris (pH=7.4), 100 mM NaCl, 7 mM MgCl2, 1 mM EDTA and 1 mM DTT. Each assay tube contained 150 μL GDP (in a final concentration of 50 μM), 100 μL ligand and 125 μL of the membrane suspension ([…]). The assay tubes were preincubated for 10 min at 30° C. to assure equilibrium. Nonspecific binding was determined in the presence of 10 μM GTPγS; basal binding was determined in the presence of buffer only. After addition of […] [^35S]GTPγS in a volume of 25 μL to the tubes, membranes were incubated for an additional 60 min at 30° C. The assay was terminated by rapid filtration through Packard UniFilter GF/B using a Packard harvester and washed four times with 1 ml ice-cold buffer. After drying the filters at 40° C. for 1 h, 40 μL Microscint (Packard) was added to the filters and radioactivity of the filters was determined by a TopCount NXT (PerkinElmer, Waltham, MA; Alper and Nelson, Eur. J. Pharmacol. 1998, 343, 303-312; Rinken et al, Biochem. Pharmacol. 1999, 57, 155-162). Data thus gathered were used to determine PAM EC50 values for each compound as primary in vitro activity end point.
In Table 1 compounds of this invention measured in the [^35S]GTPγS binding assay are listed.
On the technique in general: GTPγS is a poorly hydrolysed GTP analogue; its binding reports G protein activation.
As to `Cc1cc(C2CN(C=O)CCS2(=O)=O)n2nc([C@H]3CC[C@H](C(F)(F)F)CC3)cc2n1` (some centres unmarked) [Example 87], the EC50 was not below 10000 nM. Then `CCc1c(C)nc2cc([C@H]3CC[C@H](C(F)(F)F)CC3)nn2c1[C@]1(C)CCCN(S(C)(=O)=O)C1` [Example 44], with less than 100 nM; and `Cc1nc2cc([C@H]3CC[C@H](C(F)(F)F)CC3)nn2c([C@]2(C)CCCN(CC(F)(F)F)C2)c1C` [Example 48], with 100 to 1000 nM; and `Cc1cc([C@H]2CN(S(=O)(=O)N(C)C)CCO2)n2nc([C@H]3CC[C@H](C(F)(F)F)CC3)cc2n1` [Example 120], with 100 to 1000 nM.

Take `Cc1cc([C@@H]2CCCN(C3CCOC3)C2)n2nc([C@H]3CC[C@H](C(F)(F)F)CC3)cc2n1` (some centres unmarked) [Example 63]: the EC50 lay within 100 to 1000 nM. With `CC(=O)N1CCCC(c2c(C(C)C)c(C)nc3cc([C@H]4CC[C@H](C(F)(F)F)CC4)nn23)C1` (some centres unmarked) [Example 40], the EC50 is less than 100 nM. For the molecule `Cc1cc([C@@H]2CCCN(C=O)C2)n2nc([C@H]3CC[C@H](C(F)(F)F)CC3)cc2n1` [Example 22, (3R)-3-{5-methyl-2-[trans-4-(trifluoromethyl)cyclohexyl]pyrazolo[1,5-a]pyrimidin-7-yl}piperidine-1-carbaldehyde], the EC50 lay within 100 to 1000 nM. Then `CC(=O)N1CCC[C@@](C)(c2cc(C)nc3cc([C@H]4CC[C@H](C(F)(F)F)CC4)nn23)C1` [Example 41], with less than 100 nM; and `CC(=O)N1CCC[C@@H](c2c(C)c(C)nc3cc([C@H]4CC[C@H](C(F)(F)F)CC4)nn23)C1` [Example 33], with 100 to 1000 nM; and `CC(=O)N1CCC(C)C(c2cc(C)nc3c(F)c(C4CCC(C(F)(F)F)CC4)nn23)C1` (single isomer, unassigned) [Example 2], with 100 to 1000 nM. `CCC1CCN(C(=O)OC)CC1c1cc(C)nc2cc([C@H]3CC[C@H](C(F)(F)F)CC3)nn12` (some centres unmarked) [Example 67]: the EC50 fell in the range of 100 to 1000 nM. In the case of `Cc1cc([C@@H]2CN(C(=O)N(C)C)CC[C@@H]2C)n2nc([C@H]3CC[C@H](C(F)(F)F)CC3)c(F)c2n1` (racemic) [Example 46], the EC50 lay in the range of 100 to 1000 nM.

For the molecule `Cc1nc2cc([C@H]3CC[C@H](C(F)(F)F)CC3)nn2c([C@@H]2CCCN(C(=O)CN)C2)c1C` [Example 52], the EC50 fell in the range of 1000 to 10000 nM. `Cc1cc([C@H]2CN(C(=O)c3cnco3)CCO2)n2nc([C@H]3CC[C@H](C(F)(F)F)CC3)cc2n1` [Example 114]: the EC50 lay in the range of 100 to 1000 nM. Consider `Cc1cc([C@H]2CN(C(=O)OC(C)C)CCO2)n2nc([C@H]3CC[C@H](C(F)(F)F)CC3)cc2n1` [Example 99], for which the EC50 lay within 100 to 1000 nM.

For the molecule “2-[(3R)-3-{5,6-dimethyl-2-[trans-4-(trifluoromethyl)cyclohexyl]pyrazolo[1,5-a]pyrimidin-7-yl}-3-methylpiperidin-1-yl]acetic acid hydrochloride [Example 19]”, the EC50 was 100 to 1000 nM. Regarding `Cc1cc([C@H]2CN(S(C)(=O)=O)CCO2)n2nc([C@H]3CC[C@H](C(F)(F)F)CC3)cc2n1` [Example 119], the EC50 was in the range of 100 to 1000 nM. For `COC(=O)N1C[C@H](c2cc(C)nc3cc([C@H]4CC[C@H](C(F)(F)F)CC4)nn23)OC[C@@H]1C` [Example 102], the EC50 is less than 100 nM. To `Cc1cc([C@H]2CN(C=O)[C@@H](C)CO2)n2nc([C@H]3CC[C@H](C(F)(F)F)CC3)cc2n1` [Example 103] belongs 100 to 1000 nM; to `CCC1CCN(C=O)CC1c1cc(C)nc2cc([C@H]3CC[C@H](C(F)(F)F)CC3)nn12` (some centres unmarked) [Example 72], 100 to 1000 nM. To `Cc1cc([C@@H]2CCCN(C(=N)N)C2)n2nc([C@H]3CC[C@H](C(F)(F)F)CC3)cc2n1` [Example 23, (3R)-3-{5-methyl-2-[trans-4-(trifluoromethyl)cyclohexyl]pyrazolo[1,5-a]pyrimidin-7-yl}piperidine-1-carboximidamide hydrochloride] belongs 100 to 1000 nM; to `Cc1cc(C2CN(C)CCC2(C)C)n2nc([C@H]3CC[C@H](C(F)(F)F)CC3)cc2n1` (some centres unmarked) [Example 61], 100 to 1000 nM. For `COC(=O)N1C[C@@H](c2cc(C)nc3cc([C@H]4CC[C@H](C(F)(F)F)CC4)nn23)O[C@@H](C)C1` [Example 124], the EC50 is not below 10000 nM.

In the case of `Cc1cc(C2OCCN(C)C2=O)n2nc([C@H]3CC[C@H](C(F)(F)F)CC3)cc2n1` (stereo partly drawn) [Example 30, 4-methyl-2-{5-methyl-2-[trans-4-(trifluoromethyl)cyclohexyl]pyrazolo[1,5-a]pyrimidin-7-yl}morpholin-3-one], the EC50 lay in the range of 1000 to 10000 nM. `Cc1cc([C@]2(C)CCCN(CC#N)C2)n2nc([C@H]3CC[C@H](C(F)(F)F)CC3)cc2n1` [Example 50]: the EC50 lay in the range of 100 to 1000 nM. To `CC(=O)N1CCO[C@@H](c2c(C)c(C)nc3cc([C@H]4CC[C@H](C(F)(F)F)CC4)nn23)C1` [Example 88] belongs 100 to 1000 nM. For the molecule `Cc1cc([C@H]2CCCN(C=O)[C@H]2C)n2nc([C@H]3CC[C@H](C(F)(F)F)CC3)cc2n1` (racemic) [Example 81], the EC50 was 100 to 1000 nM.

As for `Cc1cc([C@]2(C)CCCN(C(=N)N)C2)n2nc([C@H]3CC[C@H](C(F)(F)F)CC3)cc2n1` [Example 64], the EC50 was in the range of 1000 to 10000 nM. Then `Cc1cc([C@H]2CN(C(=O)c3nnc(C)o3)CCO2)n2nc([C@H]3CC[C@H](C(F)(F)F)CC3)cc2n1` [Example 123], with 100 to 1000 nM. Take `Cc1cc([C@@H]2CN(C=O)CC[C@@H]2C)n2nc([C@H]3CC[C@H](C(F)(F)F)CC3)cc2n1` (racemic) [Example 160]: the EC50 is 100 to 1000 nM. Then `Cc1cc([C@H]2C[C@@H](C)CN(C=O)C2)n2nc([C@H]3CC[C@H](C(F)(F)F)CC3)cc2n1` (racemic) [Example 104], with 100 to 1000 nM; and `Cc1cc([C@H]2CN(C(=O)c3cncs3)CCO2)n2nc([C@H]3CC[C@H](C(F)(F)F)CC3)cc2n1` [Example 118], with 100 to 1000 nM; and `CC(=O)N1CCC[C@](C)(c2cc(C)nc3cc([C@H]4CC[C@H](C(F)(F)F)CC4)nn23)C1` [Example 36], with 1000 to 10000 nM. To `Cc1cc(C2CCCN(C)C2=O)n2nc([C@H]3CC[C@H](C(F)(F)F)CC3)cc2n1` (some centres unmarked) [Example 105] belongs 1000 to 10000 nM. Then `COC(=O)N1CCO[C@H](c2cc(C)nc3cc([C@H]4CC[C@H](C(F)(F)F)CC4)nn23)C1` [Example 93], with 1000 to 10000 nM; and `COC(=O)N1C[C@H](c2cc(C)nc3cc([C@H]4CC[C@H](C(F)(F)F)CC4)nn23)OC[C@H]1C` [Example 106], with 100 to 1000 nM; and `COC(=O)N1CC[C@H](C)[C@@H](c2cc(C)nc3cc([C@H]4CC[C@H](C(F)(F)F)CC4)nn23)C1` (racemic) [Example 159], with 100 to 1000 nM. For the molecule `Cc1cc([C@]2(C)CCCN(C=O)C2)n2nc([C@H]3CC[C@H](C(F)(F)F)CC3)cc2n1` [Example 69], the EC50 fell in the range of 100 to 1000 nM. Then `Cc1nc2cc([C@H]3CC[C@H](C(F)(F)F)CC3)nn2c([C@@H]2CN(C(=N)N)CC[C@@H]2C)c1C` (racemic) [Example 57], with 100 to 1000 nM; and `Cc1cc([C@@H]2CN(C=O)CC[C@@H]2C)n2nc([C@H]3CC[C@H](C(F)(F)F)CC3)cc2n1` (single isomer, unassigned) [Example 8], with 1000 to 10000 nM; and `Cc1cc([C@H]2CCCN(C=O)[C@@H]2C)n2nc([C@H]3CC[C@H](C(F)(F)F)CC3)cc2n1` [Example 89], with 100 to 1000 nM.

For `COCCOC(=O)N1CCO[C@@H](c2cc(C)nc3cc([C@H]4CC[C@H](C(F)(F)F)CC4)nn23)C1` [Example 100], the EC50 is 100 to 1000 nM. For the molecule `COC(=O)N1CCC[C@H](c2cc(C)nc3cc([C@H]4CC[C@H](C(F)(F)F)CC4)nn23)[C@H]1C` (racemic) [Example 92], the EC50 was less than 100 nM. As for `Cc1cc([C@@H]2CN(C=O)C(C)(C)CO2)n2nc([C@H]3CC[C@H](C(F)(F)F)CC3)cc2n1` (single isomer, unassigned) [Example 10], the EC50 fell in the range of 1000 to 10000 nM. To `Cc1cc([C@H]2CN(C(N)=O)CCO2)n2nc([C@H]3CC[C@H](C(F)(F)F)CC3)cc2n1` [Example 26, (2R)-2-{5-methyl-2-[trans-4-(trifluoromethyl)cyclohexyl]pyrazolo[1,5-a]pyrimidin-7-yl}morpholine-4-carboxamide] belongs 100 to 1000 nM. Then `COC(=O)N1CC[C@H](C)[C@H](c2cc(C)nc3cc([C@H]4CC[C@H](C(F)(F)F)CC4)nn23)C1` (racemic) [Example 76], with 100 to 1000 nM; and `COC(=O)N1CCO[C@H](c2cc(C)nc3c(F)c([C@H]4CC[C@H](C(F)(F)F)CC4)nn23)C1` [Example 130], with 100 to 1000 nM.
